According to PubChem BioAssay (NCI):
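A five-concentration, 48-hour dose response in 96-well plates underlies each endpoint, interpolated linearly between surrounding concentrations. GI50 = concentration required for 50% inhibition of growth. TGI is the concentration that stops growth completely.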

What was measured:
Test in all cases: DTP human tumour cell line panel, 48 h
A549 NSCLC = test system: A549 NSCLC
CCRF-CEM leukemia = test system: CCRF-CEM leukemia
HCT-116 colon = test system: HCT-116 colon
HOP-62 NSCLC = test system: HOP-62 NSCLC
K-562 leukemia = test system: K-562 leukemia
OVCAR-8 ovarian = test system: OVCAR-8 ovarian
RPMI-8226 leukemia = test system: RPMI-8226 leukemia
DU-145 prostate = test system: DU-145 prostate
MDA-MB-231 breast = test system: MDA-MB-231 breast
PC-3 prostate = test system: PC-3 prostate

Compound	TGI (A549 NSCLC) [µM]	TGI (CCRF-CEM leukemia) [µM]	TGI (HCT-116 colon) [µM]	TGI (HOP-62 NSCLC) [µM]	TGI (K-562 leukemia) [µM]	TGI (OVCAR-8 ovarian) [µM]	TGI (RPMI-8226 leukemia) [µM]	TGI (DU-145 prostate) [µM]	TGI (MDA-MB-231 breast) [µM]	TGI (PC-3 prostate) [µM]	GI50 (A549 NSCLC) [µM]	GI50 (CCRF-CEM leukemia) [µM]	GI50 (DU-145 prostate) [µM]	GI50 (HCT-116 colon) [µM]	GI50 (HOP-62 NSCLC) [µM]	GI50 (K-562 leukemia) [µM]	GI50 (MDA-MB-231 breast) [µM]	GI50 (OVCAR-8 ovarian) [µM]	GI50 (RPMI-8226 leukemia) [µM]	GI50 (PC-3 prostate) [µM]
N#CC1CCCCOCCOCCOCCOCCOCCCCCC1=O (stereo not drawn)	> 100	> 100	> 100	> 100	> 100	> 100	> 100	–	–	–	–	–	–	–	–	–	–	–	–	–
O=C(O)C1CC2(C1)CC(C(=O)O)C2 (stereo not drawn)	> 100	–	> 100	> 100	> 100	–	> 100	> 100	> 100	> 100	–	–	–	–	–	–	–	–	–	–
O=[N+]([O-])c1ccc(Cl)c(C2CC(c3cccc4ccccc34)=Nc3ccccc3S2)c1 (stereo not drawn)	> 100	> 64.7	38.7	> 100	> 69.6	30.8	> 47.5	–	–	–	–	–	–	–	–	–	–	–	–	–
O=C(/C=C/c1ccco1)c1ccc(NCc2nc3ccccc3[nH]2)cc1	–	33.5	–	35.6	40.9	47.8	–	–	–	–	–	–	–	–	–	–	–	–	–	–
CN(C)c1ccc(/C=C/c2ccc(/C=C/c3ccc(N(C)C)cc3)cc2)cc1	> 100	> 100	> 100	–	> 100	> 100	> 100	–	–	–	–	–	–	–	–	–	–	–	–	–
O=[N+]([O-])c1ccc(-c2noc(-c3ccc(Cl)cc3)c2C2=NCCN2)cc1	> 100	> 100	> 100	> 100	> 100	> 100	> 100	–	–	–	–	–	–	–	–	–	–	–	–	–
CC1=CC(=O)C(C(C)C)=CC1=Nc1cc(Br)c(O)c(Br)c1	> 100	18.1	11.6	45.2	13.4	57.8	27.5	11.7	12.9	–	4.98	2.72	3.58	3.39	6.29	3.92	3.65	4.65	4.51	–
O=C1NC(=O)C(=Nc2cccc3c(=O)[nH][nH]c(=O)c23)C(c2nc3ccccc3s2)C1=O (stereo not drawn)	> 100	> 100	> 100	> 100	–	> 100	–	–	–	–	–	–	–	–	–	–	–	–	–	–
COC(=O)/C(=N/Nc1cccc(Cl)c1)C(C(=O)C(=O)Nc1cccc(Cl)c1C)c1nc2ccccc2nc1C (stereo not drawn)	> 100	> 100	> 100	> 100	> 100	> 100	> 100	–	–	–	–	–	–	–	–	–	–	–	–	–
CCN(CC)c1ccc(N=Nc2ccc([N+](=O)[O-])cc2OC(=O)/C=C/c2ccccc2)c(OC(=O)/C=C/c2ccccc2)c1	> 100	> 100	> 100	> 100	> 100	> 100	> 100	–	–	–	–	–	–	–	–	–	–	–	–	–
Cc1cc(-c2ccccc2)nc(Nc2nc3ccccc3o2)n1	> 100	> 100	> 100	> 100	> 100	> 100	> 100	–	–	–	–	–	–	–	–	–	–	–	–	–
NC(=O)c1ccccc1NC(=O)C(=O)Cc1nc2ccccc2[nH]c1=O	> 100	> 100	> 100	> 100	> 100	> 100	> 100	–	–	–	–	–	–	–	–	–	–	–	–	–
O=C(CSc1ncn[nH]1)C[P+](c1ccccc1)(c1ccccc1)c1ccccc1	> 100	> 100	–	> 100	> 100	> 100	–	–	–	–	–	–	–	–	–	–	–	–	–	–
Cn1c(=O)c(NC(=O)C(Cl)(Cl)Cl)nc2ccccc21	> 100	> 100	> 100	> 100	> 100	> 100	> 100	–	–	–	–	–	–	–	–	–	–	–	–	–
Nc1cc(O)ccc1N=Nc1ccc(-c2nc3ccccc3[nH]2)cc1	> 100	–	> 100	> 100	> 100	52.5	94.6	> 100	> 100	> 100	> 100	–	> 100	41.2	> 100	23	68.7	10.7	30.2	20.4
COc1ccc2c(c1)CC[C@@H]1[C@@H]2CC[C@]2(C)[C@@H](NC(=O)/C=C/c3ccc(O)c(O)c3)CC[C@@H]12	17.6	6.67	10.4	11.1	–	16.7	9.79	30.4	15.2	12.5	4.58	0.731	12.6	2.02	3.03	–	2.6	4.2	1.08	2.17
Cc1ccc(NC(=O)C2C(=O)N(c3ccc(C)c(C)c3)C(=O)/C2=N\NC(N)=O)cc1C (stereo not drawn)	> 100	> 100	> 100	> 100	> 100	> 100	> 100	–	–	–	–	–	–	–	–	–	–	–	–	–
CCOc1ccc2c(c1)[n+]([O-])c(-c1ccc(Br)cc1)c(N)[n+]2[O-]	> 100	> 100	–	> 100	> 100	> 100	> 100	–	–	–	–	–	–	–	–	–	–	–	–	–
Oc1ccc(O)c(-c2cc(-c3ccc(Cl)cc3)nn2-c2ccccc2)c1	31	> 100	–	–	12.1	> 100	7.03	48.3	6.82	13.1	7.56	3.06	26.1	–	–	3.23	2.33	4.51	2.29	3.19
CCn1c(SC(C)C(=O)c2c(C)n(C)n(-c3ccccc3)c2=O)nc2ccccc2c1=O (stereo not drawn)	> 100	> 100	> 100	> 100	–	> 100	> 100	–	–	–	–	–	–	–	–	–	–	–	–	–
Nc1c(O)cc(N=C2C(=O)C=CC=C2C(=O)O)c(O)c1C(=O)O	> 100	–	> 100	> 100	> 100	> 100	> 100	–	–	–	–	–	–	–	–	–	–	–	–	–
Cc1noc2c1C(=O)CCC2	–	> 100	> 100	–	> 100	> 100	> 100	–	–	–	–	–	–	–	–	–	–	–	–	–
S=c1nc(COc2ccc(Cl)cc2Cl)[nH][nH]1	> 100	> 100	> 100	–	> 100	> 100	> 100	–	–	–	–	–	–	–	–	–	–	–	–	–
Cc1cccc(C(C)C)c1N1C(=O)C(=O)C(c2nc3ccccc3o2)C(=O)C1=O	> 100	63	> 100	> 100	> 100	> 100	–	–	–	–	–	–	–	–	–	–	–	–	–	–
Cc1nc2c(o1)C(=Nc1ccccc1)c1ccccc1C2=O	38.3	45.9	23.2	28.1	> 100	13.4	38.1	–	–	–	–	–	–	–	–	–	–	–	–	–
